Counter-ions that a name gives are not always drawn. Blank lines part the entries; values can stand above or below the molecule they belong to.
Tests used:
[1] = XRPD comparison of crystalline form ω fresh and after storage; assay type: physicochemical; conditions: in the presence of moisture; FIGS. 6 and 7: 4° C. 24 hours, room temperature 24 hours, 25° C. and 60% RH 7 days
Experimental: FIG. 6: Comparison of XRPD spectra of a sample of vortioxetine hydrobromide in crystalline form ω, as defined herein, freshly prepared (top line), after the same sample of vortioxetine hydrobromide in crystalline form ω has been kept at low temperature (4° C.) for 24 hours (middle line), and after the sample has been kept at room temperature for 24 hours (bottom line).
FIG. 7: Comparison of XRPD spectra of a sample of vortioxetine hydrobromide in crystalline form ω, as defined herein, freshly prepared (bottom line), and the same sample analysed after 7 days, kept at a temperature of 25° C. and 60% relative humidity (RH) (top line).
Crystalline form ω of vortioxetine hydrobromide was characterised by X-ray powder diffraction (XRPD). The X-ray powder diffraction (XRPD) spectra shown in FIGS. 3, 6 and 7 were collected with a PANalytical X'Pert PRO automatic powder diffractometer under the following operating conditions: CuKα radiation (λ=1.54 Å), scanning with a 2θ angle range of 3-40° with a step size of 0.017° for 12.7 sec.

[2] = Physical and chemical stability of crystalline form ω under standard conditions; assay type: physicochemical; conditions: standard pressure, temperature and humidity conditions; FIGS. 6 and 7
[3] = Hygroscopicity of crystalline form ω under standard storage conditions; assay type: physicochemical
[4] = as said in WO 2014/044721; cited from earlier work
[5] = greater relative humidity than the standard conditions; as described in WO 2007/144005, acknowledged by WO2014/044721; cited from earlier work

retention of crystalline form (XRPD) [1]: keeps its crystalline form
hygroscopicity [3]: not hygroscopic
SMILES: Cc1ccc(Sc2ccccc2N2CCNCC2)c(C)c1 [crystalline form ω, hydrobromide salt of 1-[2-(2,4-dimethylphenylsulphanyl)phenyl]piperazine]
physical and chemical stability [2]: stable from both the physical and the chemical standpoint

SMILES: Cc1ccc(Sc2ccccc2N2CCNCC2)c(C)c1 [delta crystalline form, vortioxetine hydrobromide]
solubility in water [4]: high solubility in water

SMILES: Cc1ccc(Sc2ccccc2N2CCNCC2)c(C)c1 [gamma, vortioxetine hydrobromide]
hygroscopicity (tendency to absorb water) [5]: significant hygroscopicity

Source: patent publication US9687484B2, “Crystalline forms of an antidepressant compound” (DIPHARMA FRANCIS S.r.l., priority 2014, dated 2017)
